Reference: patent US6245791A (Aventis Pharma S.A., priority 1998, dated 2001)

System: glutamate uptake in synaptosomes of rat cerebellum
Method: The increase in glutamate uptake is evaluated in a suspension of synaptosomes prepared from rat cerebellar cells.
The synaptosomes were prepared according to a modification of the method described by Robinson, M. B., et al., (Brain Res., 544: 196-202, 1991). The tissues of cerebellum or of other regions of the brain of male rats of the Sprague-Dawley breed are homogenized in a sucrose solution (0.32 M) at 4° C. and then centrifuged at 800 g for 10 minutes. The supernatant is then recentrifuged at 20,000 g for 20 minutes. The centrifugation pellet obtained is resuspended in an identical sucrose solution and then centrifuged again at 20,000 g for 20 minutes. The synaptosomes are contained in this second centrifugation pellet. They are suspended and used immediately for measuring glutamate uptake. This is monitored with the aid of tritium-labelled glutamate ([^3 H]glutamate) diluted in a solution of nonradioactive glutamate. After 3 minutes of incubation at 37° C., the synaptosomes are separated from the incubation medium by filtration. […] This radioactivity is proportional to the glutamate uptake. The results are expressed as specific uptake, that is to say the uptake which depends on the presence of sodium ions in the incubation medium. It can be distinguished from the nonspecific uptake which corresponds to the radioactivity measured after equimolar replacement of sodium chloride in the incubation medium with choline chloride. The specific uptake corresponds to the total radioactivity minus the radioactivity measured in the presence of choline chloride.
The data are the mean values±SEM of n=8 independent observations.

Compound: Nc1nc2ccc(OC(F)(F)F)cc2s1 [riluzole, 2-amino-6-trifluoromethoxybenzothiazole]
- dependence of the increase in glutamate uptake on the age of the rats (cerebellum, postnatal period to adult age, stable after about 10 weeks): increases with the age of the rats
- uptake of radioactive glutamate (result in words) (rat cerebellar synaptosomes, increasing concentrations of riluzole (FIG. 1)): increased in a concentration-dependent manner
- maximum increase in glutamate uptake (rat cerebellar synaptosomes, specific uptake, n=8, 3 min): ~40 % of the control values
